# In patent publication US20100160385A1, “FUNGICIDAL TRIPHENYL-SUBSTITUTED PYRIDONES” (E.I. DU PONT DE NEMOURS AND COMPANY, priority 2008, published 2010):
# Columns and labels:
# [1] = system: Puccinia recondite f. sp. tritici; test: Test B: wheat leaf rust, preventive spray on wheat seedlings; type: in vivo; conditions: wheat seedlings sprayed to run-off, inoculated following day, 24 h saturated atmosphere then 7 days at 20° C.; 100 = 100% disease control, 0 = no control; test concentration not given
# Alternaria solani = conditions: tomato seedlings sprayed to run-off, inoculated following day, 48 h saturated atmosphere at 27° C. then 5 days at 20° C.; 100 = 100% disease control, 0 = no control; test concentration not given
# Septoria tritici = test: Test C: wheat leaf blotch, preventive spray on wheat seedlings; type: in vivo; conditions: wheat seedlings sprayed to run-off, inoculated following day, 48 h saturated atmosphere then 19 days at 20° C.; 100 = 100% disease control, 0 = no control; test concentration not given
# [2] = system: Erysiphe graminis f. sp. tritici; test: Test A: wheat powdery mildew, preventive spray on wheat seedlings; type: in vivo; conditions: wheat seedlings sprayed to run-off, inoculated following day, rated after 8 days at 20° C.; 100 = 100% disease control, 0 = no control; test concentration not given
# Botrytis cinerea = conditions: tomato seedlings sprayed to run-off, inoculated following day, 48 h saturated atmosphere at 20° C. then 3 days at 24° C.; 100 = 100% disease control, 0 = no control; test concentration not given
# Septoria nodorum = test: Test D: wheat glume blotch, preventive spray on wheat seedlings; type: in vivo; conditions: wheat seedlings sprayed to run-off, inoculated following day, 48 h saturated atmosphere then 7 days at 20° C.; 100 = 100% disease control, 0 = no control; test concentration not given
compound,measurement,setting,value
"COc1cc(OC)c(Cl)c(-n2c(-c3ccc(F)cc3)cc(=O)c(C)c2-c2c(F)cc(F)cc2F)c1 [Compound 1, 1-(2-chloro-3-5-dimethoxyphenyl)-6-(4-fluorophenyl)-3-methyl-2-(2,4,6-trifluorophenyl)-4-(1H)-pyridinone]",Test B disease control rating,[1],100%
same,Test E disease control rating,Alternaria solani,100%
same,Test C disease control rating,Septoria tritici,97%
same,Test A disease control rating,[2],99%
same,Test F disease control rating,Botrytis cinerea,98%
same,Test D disease control rating,Septoria nodorum,100%
